Test results published in article PMC9923724, “Half sandwich-type osmium, ruthenium, iridium and rhodium complexes with bidentate glycosyl heterocyclic ligands induce cytostasis in platinum-resistant ovarian cancer cells and bacteriostasis in Gram-positive multiresistant bacteria” (Frontiers in Chemistry, 2023).
Values joined by “and” are separate entries in the source; they are usually repeats but may differ in a detail not shown here. Identical values can stand only once.

Tests used:
Type in all cases: cell-based
ID8 ovarian cancer cells [1] = assay: SRB assay (48 h) on ID8 cells
Procedure: (§1) 3 × 10^3 A2780 cells, 2 × 10^3 ID8 cells and 4 × 10^3 primary fibroblasts were plated to 96 well plates. Cells were treated with the compounds in the concentrations indicated for either 4 h for an MTT assay or for 48 h for an SRB assay. Data is represented as average ± SD, from three biological replicates; individual assays were performed in duplicates. Values were normalized for vehicle treated cells, absorbance for vehicle treated cells equals to 1. Statistical significance was assessed using two-way ANOVA test comparing the free ligand and each complex as a complex-ligand pair. Before the test normality was assessed using the D’Agostino-Pearson test. The ID8 SRB Ir-7+L-7 dataset had lognormal distribution. […] All other datasets had normal distribution. For better visibility the p values are presented in an excel sheet at https://figshare.com/s/2c942a812caea8869a67. Non-linear regression was performed on the A2780 SRB and the ID8 SRB datasets.
(§2) ID8 cells were cultured in high glucose DMEM (4.5 g/L glucose) medium supplemented with 4% fetal calf serum, 2 mM glutamine, 1% penicillin-streptomycin, 1% ITS supplement (I3146).
The assay was performed similar to ([Kovács et al., 2019]). Cells were seeded in 96 well plates the day before the assay. Cells were treated with the compounds for 48 h. Cells were fixed with 10% trichloroacetic acid (TCA). Fixed cells were washed in distilled water 3 times followed by staining with SRB (0.4 m/V% dissolved in 1% acetic acid) for 10 min. Stained cells were washed in 1% acetic acid 5 times; acetic acid was removed and cells were left to dry. Protein-bound SRB was released by adding 100 µl 10 mM Tris base. Plates were measured in a plate photometer (Thermo Scientific Multiscan GO spectrophotometer, Waltham, MA, United States) at 540 nm. On each plate wells were designed to contain vehicle-treated cells. In calculations the readings for these wells was considered as 1 and all readings were expressed relative to these values.
Statistical analysis was performed using 8.0.1 version of Graphpad Prism. Values were tested for normal distribution using the D’Agostino and Pearson normality test. When necessary, values were log normalized or were normalized using the Box-Cox normalization method ([Box and Cox, 1964]) as indicated in the figure captions. Non-linear regression was performed using the built-in “[Inhibitor] vs. response—Variable slope (four parameters), least square fit” utility of Graphpad that yielded IC50 and Hill slope values.

[2] = system: primary dermal fibroblasts; assay: MTT reduction assay (4 h) on primary fibroblasts; conditions: primary human dermal fibroblasts
Procedure: as §1
Human primary dermal fibroblasts were cultured in low glucose DMEM (1 g/L glucose) medium supplemented with 20% fetal calf serum, 2 mM glutamine, 1% penicillin-streptomycin.
(§3) MTT reduction assay measures the activity of mitochondrial complex I and can be used to detect toxicity ([Virág et al., 1998]; [Henslee et al., 2016]). The assay was performed similar to ([Bakondi et al., 2003]). Briefly, cells were plated in 96 well plates the day before the assay. Cells were treated with the compounds for 4 h, then MTT was added in 0.5 mg/ml final concentration and cells were incubated at 37°C in a cell incubator. Culture media was removed and the reduced MTT dye was dissolved in dimethyl-sulfoxide (DMSO) and plates were measured in a plate photometer (Thermo Scientific Multiscan GO spectrophotometer, Waltham, MA, United States) at 540 nm. On each plate wells were designed to contain untreated/vehicle-treated cells. In calculations the readings for these wells was considered as 1 and all readings were expressed relative to these values.

[3] = system: A2780 ovarian cancer cells; assay: MTT reduction assay (rapid toxicity, 4 h) on A2780 cells; conditions: 4 h treatment
Procedure: First, we assessed a set of osmium complexes (similar to Ia [[Kacsir et al., 2022]) in Figure 1] and their sugar-derived ligands, in which the benzoyl protective groups on the carbohydrate moiety were replaced by aliphatic acyl groups of different chain length (straight chain C3-C7–CO). Osmium was selected as a central ion, since osmium complexes had the best biological activity in our previous studies ([Balázs et al., 2022]; [Kacsir et al., 2022]). These compounds were tested on A2780 ovarian cancer cells for toxicity and cytostasis. The therapy of ovarian cancer is centered around platinum compounds ([Brown et al., 2019]; [Sipos et al., 2021]), therefore, it was logical to use a cellular model of ovarian cancer for the initial testing of the compounds. Toxicity was assessed using the MTT assay that measures the activity of mitochondrial complex I. We chose 4 h long treatment as in an MTT assay this time point is suitable to detect rapid, direct toxicity. Cytostasis was assessed after 48 h of treatment using the SRB assay that assesses protein content that corresponds to cell count. The characteristics of the compounds are detailed in Table 2.
3 × 10^3 A2780 cells, were plated to 96 well plates. Cells were treated with the compounds in the concentrations indicated for either 4 h for an MTT assay or for 48 h for an SRB assay. Data is represented as average ± SD, from three biological replicates; individual assays were performed in duplicates. Values were normalized for vehicle treated cells, absorbance for vehicle treated cells equals to 1. […] Except for the Os-6 complex, Two-way ANOVA test was performed and all values were compared with each other (Tukey’s post hoc test). […] Non-linear regression was performed on the data.
as §1, §3

ID8 ovarian cancer cells [4] = assay: MTT reduction assay (4 h) on ID8 cells
Procedure: as §1, §2, §3

Structure (SMILES)	IC50 (ID8 ovarian cancer cells [1]) [µM]	ID8 SRB IC50 (ID8 ovarian cancer cells [1])	ID8 SRB Max. (maximal inhibition) (ID8 ovarian cancer cells [1]) [%]	Fibroblast MTT Max. (maximal inhibition) [2] [%]	A2780 MTT Max. (maximal inhibition) [3] [%]	ID8 MTT Max. (maximal inhibition) (ID8 ovarian cancer cells [4])
Cc1c(C)c(C)[c-](C)c1C.F[P-](F)(F)(F)(F)F.O=C(OCC1OC(n2cc(-c3ccc4ccccc4n3)nn2)C(OC(=O)c2ccccc2)C(OC(=O)c2ccccc2)C1OC(=O)c1ccccc1)c1ccccc1.[Cl][Ir+2] (mixture of isomers) [Ir-7]	0.799	submicromolar or low micromolar	>90	12.81	23.2	19.23%
Cc1ccc(C(C)C)cc1.F[P-](F)(F)(F)(F)F.O=C(OCC1OC(n2cc(-c3ccc4ccccc4n3)nn2)C(OC(=O)c2ccccc2)C(OC(=O)c2ccccc2)C1OC(=O)c1ccccc1)c1ccccc1.[Cl][Os+] (mixture of isomers) [Os-7]	0.359	submicromolar or low micromolar	>90	30.97	33.0	75% and 74.90%
Cc1ccc(C(C)C)cc1.F[P-](F)(F)(F)(F)F.O=C(OCC1OC(n2cc(-c3ccc4ccccc4n3)nn2)C(OC(=O)c2ccccc2)C(OC(=O)c2ccccc2)C1OC(=O)c1ccccc1)c1ccccc1.[Cl][Ru+] (mixture of isomers) [Ru-7]	1.14	submicromolar or low micromolar	>90	23.93	23.4	32.56%
